Our source for the IC50 values is BindingDB's records for doi:10.1016/j.ejmech.2007.04.019 (The Hebrew University of Jerusalem, 2008).

The structures appear in SMILES notation.

The target of test [1] is Prostaglandin G/H synthase 1 (Homo sapiens, UniProt P23219). Put plainly: Inhibition of cyclooxygenase-1.
In test [2] the target is T1, Prostaglandin G/H synthase 2 (Homo sapiens, UniProt P35354).
T1 sequence (P35354 whole entry): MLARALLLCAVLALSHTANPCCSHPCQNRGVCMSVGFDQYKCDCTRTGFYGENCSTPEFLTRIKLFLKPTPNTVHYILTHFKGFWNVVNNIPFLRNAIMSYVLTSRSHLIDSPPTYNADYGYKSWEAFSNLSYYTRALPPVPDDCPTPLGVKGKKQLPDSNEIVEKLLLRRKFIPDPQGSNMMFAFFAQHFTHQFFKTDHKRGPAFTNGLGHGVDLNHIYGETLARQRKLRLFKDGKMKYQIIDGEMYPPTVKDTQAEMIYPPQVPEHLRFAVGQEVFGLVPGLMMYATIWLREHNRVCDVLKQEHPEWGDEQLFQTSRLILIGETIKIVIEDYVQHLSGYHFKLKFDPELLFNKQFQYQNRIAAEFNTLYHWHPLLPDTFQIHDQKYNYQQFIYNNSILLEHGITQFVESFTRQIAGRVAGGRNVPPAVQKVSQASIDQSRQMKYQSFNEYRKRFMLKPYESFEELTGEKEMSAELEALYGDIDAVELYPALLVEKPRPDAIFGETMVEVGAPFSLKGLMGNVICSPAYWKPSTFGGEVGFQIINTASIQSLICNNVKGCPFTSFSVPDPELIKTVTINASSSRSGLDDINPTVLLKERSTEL
Description: Inhibition of cyclooxygenase-2.

Sequence of Prostaglandin G/H synthase 1 (P23219 whole entry): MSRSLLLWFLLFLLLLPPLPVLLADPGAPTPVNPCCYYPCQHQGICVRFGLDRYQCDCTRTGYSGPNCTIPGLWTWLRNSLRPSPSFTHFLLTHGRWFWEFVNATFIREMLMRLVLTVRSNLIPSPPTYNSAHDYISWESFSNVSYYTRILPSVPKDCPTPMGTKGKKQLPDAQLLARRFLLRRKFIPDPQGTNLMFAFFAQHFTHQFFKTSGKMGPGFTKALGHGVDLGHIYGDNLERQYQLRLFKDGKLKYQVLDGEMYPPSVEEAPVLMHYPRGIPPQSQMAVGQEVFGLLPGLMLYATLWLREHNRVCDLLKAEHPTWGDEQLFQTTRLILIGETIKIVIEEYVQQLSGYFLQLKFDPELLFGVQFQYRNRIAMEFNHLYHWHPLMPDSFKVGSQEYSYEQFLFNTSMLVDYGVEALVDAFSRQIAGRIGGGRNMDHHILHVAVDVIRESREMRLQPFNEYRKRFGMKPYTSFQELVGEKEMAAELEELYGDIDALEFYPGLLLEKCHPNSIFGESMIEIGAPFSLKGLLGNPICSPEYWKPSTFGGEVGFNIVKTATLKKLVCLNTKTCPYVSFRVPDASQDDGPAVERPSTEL

By IC50 is commonly meant the concentration at which inhibition is half-maximal. A low value points to greater potency. Turning to `C=C[C@@H]1[C@@H](O)C[C@@H]2[C@]3(CC[C@]4(C)[C@@H]([C@H](C)CCC(OO)C(=C)C)CC[C@@]24C)C[C@]13CCC(=O)OC` (some centres not stated), the IC50 in test [1] turned out to be 43.7 µM; in test [2] it was 4.7 µM.
